Patent US8192962B2, “Processes for detecting toxic substances” (Daikin Industries, Ltd., priority 2001, dated 2012)

Tested on: Detoxification protein genes
Experiment: DNA chip mRNA expression in yeast, detoxification protein genes (Table 8)
Type: cell-based, Saccharomyces cerevisiae S288C
In short: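 Value is the scanned fluorescence intensity ratio of exposed versus chemical-free cells. Log-phase S288C yeast in YPD at 25° C. received one toxic substance for two hours, dosed to slow growth without killing; Cy3/Cy5-labeled cDNA from oligo-dT-purified mRNA was hybridized to a whole-genome chip at 65° C.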

[Cl][Cd][Cl] [(2), CdCl2]
The level of expressed mRNA in the presence of chemical substance/The level of expressed mRNA in the absence of chemical substance (yeast gene YBL064C): 2.8
The level of expressed mRNA in the presence of chemical substance/The level of expressed mRNA in the absence of chemical substance (yeast gene YBR008C): 2.4
The level of expressed mRNA in the presence of chemical substance/The level of expressed mRNA in the absence of chemical substance (yeast gene YBR145W): 0.7
The level of expressed mRNA in the presence of chemical substance/The level of expressed mRNA in the absence of chemical substance (yeast gene YBR244W): 1.4
The level of expressed mRNA in the presence of chemical substance/The level of expressed mRNA in the absence of chemical substance (yeast gene YBR293W): 3.1
The level of expressed mRNA in the presence of chemical substance/The level of expressed mRNA in the absence of chemical substance (yeast gene YCL035C): 2.3
The level of expressed mRNA in the presence of chemical substance/The level of expressed mRNA in the absence of chemical substance (yeast gene YCL069W): 15.7
The level of expressed mRNA in the presence of chemical substance/The level of expressed mRNA in the absence of chemical substance (yeast gene YCR083W): 2.8
The level of expressed mRNA in the presence of chemical substance/The level of expressed mRNA in the absence of chemical substance (yeast gene YDL100C): 1.2
The level of expressed mRNA in the presence of chemical substance/The level of expressed mRNA in the absence of chemical substance (yeast gene YDL168W): 2.0
The level of expressed mRNA in the presence of chemical substance/The level of expressed mRNA in the absence of chemical substance (yeast gene YDR256C): 1.4
The level of expressed mRNA in the presence of chemical substance/The level of expressed mRNA in the absence of chemical substance (yeast gene YDR453C): 2.7
The level of expressed mRNA in the presence of chemical substance/The level of expressed mRNA in the absence of chemical substance (yeast gene YDR513W): 2.5
The level of expressed mRNA in the presence of chemical substance/The level of expressed mRNA in the absence of chemical substance (yeast gene YDR538W): 1.1
The level of expressed mRNA in the presence of chemical substance/The level of expressed mRNA in the absence of chemical substance (yeast gene YEL027W): 0.6
The level of expressed mRNA in the presence of chemical substance/The level of expressed mRNA in the absence of chemical substance (yeast gene YEL065W): 3.8
The level of expressed mRNA in the presence of chemical substance/The level of expressed mRNA in the absence of chemical substance (yeast gene YER185W): 3.1
The level of expressed mRNA in the presence of chemical substance/The level of expressed mRNA in the absence of chemical substance (yeast gene YFL050C): 1.0
The level of expressed mRNA in the presence of chemical substance/The level of expressed mRNA in the absence of chemical substance (yeast gene YGL013C): 1.2
The level of expressed mRNA in the presence of chemical substance/The level of expressed mRNA in the absence of chemical substance (yeast gene YGL254W): 1.1
The level of expressed mRNA in the presence of chemical substance/The level of expressed mRNA in the absence of chemical substance (yeast gene YGR088W): 1.2
The level of expressed mRNA in the presence of chemical substance/The level of expressed mRNA in the absence of chemical substance (yeast gene YGR138C): 1.6
The level of expressed mRNA in the presence of chemical substance/The level of expressed mRNA in the absence of chemical substance (yeast gene YGR197C): 2.4
The level of expressed mRNA in the presence of chemical substance/The level of expressed mRNA in the absence of chemical substance (yeast gene YGR209C): 3.1
The level of expressed mRNA in the presence of chemical substance/The level of expressed mRNA in the absence of chemical substance (yeast gene YGR224W): 1.2
The level of expressed mRNA in the presence of chemical substance/The level of expressed mRNA in the absence of chemical substance (yeast gene YHL040C): 4.4
The level of expressed mRNA in the presence of chemical substance/The level of expressed mRNA in the absence of chemical substance (yeast gene YHL047C): 4.4
The level of expressed mRNA in the presence of chemical substance/The level of expressed mRNA in the absence of chemical substance (yeast gene YHR008C): 6.9
The level of expressed mRNA in the presence of chemical substance/The level of expressed mRNA in the absence of chemical substance (yeast gene YHR048W): 1.4
The level of expressed mRNA in the presence of chemical substance/The level of expressed mRNA in the absence of chemical substance (yeast gene YHR053C): 2.1
The level of expressed mRNA in the presence of chemical substance/The level of expressed mRNA in the absence of chemical substance (yeast gene YHR055C): 1.8
The level of expressed mRNA in the presence of chemical substance/The level of expressed mRNA in the absence of chemical substance (yeast gene YIR002C): 1.1
The level of expressed mRNA in the presence of chemical substance/The level of expressed mRNA in the absence of chemical substance (yeast gene YIR038C): 3.5
The level of expressed mRNA in the presence of chemical substance/The level of expressed mRNA in the absence of chemical substance (yeast gene YJL101C): 1.9
The level of expressed mRNA in the presence of chemical substance/The level of expressed mRNA in the absence of chemical substance (yeast gene YJR104C): 1.8
The level of expressed mRNA in the presence of chemical substance/The level of expressed mRNA in the absence of chemical substance (yeast gene YKL026C): 2.0
The level of expressed mRNA in the presence of chemical substance/The level of expressed mRNA in the absence of chemical substance (yeast gene YKL064W): 0.9
The level of expressed mRNA in the presence of chemical substance/The level of expressed mRNA in the absence of chemical substance (yeast gene YKR066C): 1.4
The level of expressed mRNA in the presence of chemical substance/The level of expressed mRNA in the absence of chemical substance (yeast gene YKR105C): 0.9
The level of expressed mRNA in the presence of chemical substance/The level of expressed mRNA in the absence of chemical substance (yeast gene YKR106W): 0.8
The level of expressed mRNA in the presence of chemical substance/The level of expressed mRNA in the absence of chemical substance (yeast gene YLL028W): 0.9
The level of expressed mRNA in the presence of chemical substance/The level of expressed mRNA in the absence of chemical substance (yeast gene YLL057C): 59.9
The level of expressed mRNA in the presence of chemical substance/The level of expressed mRNA in the absence of chemical substance (yeast gene YLL060C): 4.2
The level of expressed mRNA in the presence of chemical substance/The level of expressed mRNA in the absence of chemical substance (yeast gene YLR043C): 1.4
The level of expressed mRNA in the presence of chemical substance/The level of expressed mRNA in the absence of chemical substance (yeast gene YLR046C): 1.7
The level of expressed mRNA in the presence of chemical substance/The level of expressed mRNA in the absence of chemical substance (yeast gene YML028W): 2.2
The level of expressed mRNA in the presence of chemical substance/The level of expressed mRNA in the absence of chemical substance (yeast gene YML116W): 1.3
The level of expressed mRNA in the presence of chemical substance/The level of expressed mRNA in the absence of chemical substance (yeast gene YMR015C): 0.7
The level of expressed mRNA in the presence of chemical substance/The level of expressed mRNA in the absence of chemical substance (yeast gene YMR038C): 1.7
The level of expressed mRNA in the presence of chemical substance/The level of expressed mRNA in the absence of chemical substance (yeast gene YNL239W): 2.4
The level of expressed mRNA in the presence of chemical substance/The level of expressed mRNA in the absence of chemical substance (yeast gene YNL241C): 2.5
The level of expressed mRNA in the presence of chemical substance/The level of expressed mRNA in the absence of chemical substance (yeast gene YNL259C): 4.5
The level of expressed mRNA in the presence of chemical substance/The level of expressed mRNA in the absence of chemical substance (yeast gene YOL158C): 4.0
The level of expressed mRNA in the presence of chemical substance/The level of expressed mRNA in the absence of chemical substance (yeast gene YOR031W): 1.7
The level of expressed mRNA in the presence of chemical substance/The level of expressed mRNA in the absence of chemical substance (yeast gene YOR153W): 0.9
The level of expressed mRNA in the presence of chemical substance/The level of expressed mRNA in the absence of chemical substance (yeast gene YOR247W): 0.6
The level of expressed mRNA in the presence of chemical substance/The level of expressed mRNA in the absence of chemical substance (yeast gene YOR251C): 1.0
The level of expressed mRNA in the presence of chemical substance/The level of expressed mRNA in the absence of chemical substance (yeast gene YOR273C): 1.0
The level of expressed mRNA in the presence of chemical substance/The level of expressed mRNA in the absence of chemical substance (yeast gene YPL163C): 0.7
The level of expressed mRNA in the presence of chemical substance/The level of expressed mRNA in the absence of chemical substance (yeast gene YPR200C): 1.7
